In the supplement of paper PMC12137928 one finds IC50 cell viability data, which are given here for 27 compounds.

In the test the test system is HCT116. To be noted: 72 h. An outline of the steps:
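For IC50 and maximal efficacy, four-parameter Hill fits were used. Input values were CellTiter-Glo luminescence from HCT116 cells seeded at 250 per well in 1536-well plates, normalized to vehicle (0%) and positive control (-100%). Pattern correction followed normalization.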

Structures are written as SMILES. Where a name gives a salt, the structure may show the parent alone.

As to `CC1(C)[C@@H]2CC[C@@]1(C)[C@H](OC(=O)CSC#N)C2` [Thanite], the IC50 cell viability (ICRF193 0 nM) is over 45.8 µM and the IC50 cell viability (ICRF193 200 nM) is over 45.8 µM.

As to `COCCc1ccc(OCC(O)CNC(C)C)cc1` (centres undefined) [Metoprolol tartrate], the IC50 cell viability runs as follows: (ICRF193 0 nM) over 45.8 µM; (ICRF193 200 nM) over 45.8 µM.

Take `C[Si](C)(C)O[Si](C)(C)O[Si](C)(C)C` [Trisiloxane, octamethyl-]: the IC50 cell viability is over 45.8 µM (ICRF193 0 nM) and over 45.8 µM (ICRF193 200 nM).

In the case of `CCOc1ccc(NC(=O)CC(C)O)cc1` (centres undefined) [3-Hydroxy-4-butyrophenetidide], the IC50 cell viability runs as follows: (ICRF193 0 nM) over 45.8 µM; (ICRF193 200 nM) over 45.8 µM.

In the case of `N[C@H](C(=O)O)[C@H](O)c1ccc(O)c(O)c1` [Droxidopa], the IC50 cell viability is, setting by setting: (ICRF193 0 nM) over 45.8 µM; (ICRF193 200 nM) over 45.8 µM.

Turning to `Cc1cccc([C@H](C)c2c[nH]cn2)c1C` [Dexmedetomidine], the IC50 cell viability (ICRF193 0 nM) was over 45.8 µM and the IC50 cell viability (ICRF193 200 nM) is over 45.8 µM.

With `Cn1c(=O)c2c(ncn2CC(O)CO)n(C)c1=O` (centres undefined) [Dyphylline], the IC50 cell viability is, setting by setting: (ICRF193 0 nM) over 45.8 µM; (ICRF193 200 nM) over 45.8 µM.

`CN1[C@@H](CC(=O)c2ccccc2)CCC[C@H]1C[C@H](O)c1ccccc1` [LOBELINE HYDROCHLORIDE]: the IC50 cell viability is, setting by setting: (ICRF193 0 nM) over 45.8 µM; (ICRF193 200 nM) over 45.8 µM.

Regarding `N=C1CCCN1Cc1[nH]c(=O)[nH]c(=O)c1Cl` [Tipiracil], the IC50 cell viability by setting is: (ICRF193 0 nM) over 45.8 µM; (ICRF193 200 nM) over 45.8 µM.

Turning to `Cn1sc(Cl)cc1=O` [5-Chloro-2-methyl-3(2H)-isothiazolone], the IC50 cell viability was over 45.8 µM (ICRF193 0 nM) and over 45.8 µM (ICRF193 200 nM).

`CCC1=C(C)CN(C(=O)NCCc2ccc(S(=O)(=O)NC(=O)N[C@H]3CC[C@H](C)CC3)cc2)C1=O` [Glimepiride] had an IC50 cell viability (ICRF193 0 nM) of over 45.8 µM and an IC50 cell viability (ICRF193 200 nM) of over 45.8 µM.

Compound `CNc1ncc(-c2ccc3c(=O)c(C(=O)O)cn(C4CC4)c3c2C)cc1C` [OZENOXACIN] had an IC50 cell viability (ICRF193 0 nM) of over 45.8 µM and an IC50 cell viability (ICRF193 200 nM) of over 45.8 µM.

Consider `CCOC(=O)C1(c2ccccc2)CCN(CCc2ccc(N)cc2)CC1` [Anileridine], for which the IC50 cell viability is, setting by setting: (ICRF193 0 nM) over 45.8 µM; (ICRF193 200 nM) over 45.8 µM.

Compound `CCOc1ccc2ccccc2c1C(=O)N[C@@H]1C(=O)N2[C@@H]1SC(C)(C)[C@@H]2C(=O)O` [Nafcillin sodium monohydrate] had an IC50 cell viability (ICRF193 0 nM) of over 45.8 µM and an IC50 cell viability (ICRF193 200 nM) of over 45.8 µM.

`O=C1O[C@@H]2[C@@H](O)[C@H](O)O[C@@H]2C1O` (stereo partly drawn) [D-Glucuronolactone]: the IC50 cell viability is over 45.8 µM (ICRF193 0 nM) and over 45.8 µM (ICRF193 200 nM).

As for `OC[C@H]1O[C@@H](Oc2ccc(O)cc2)[C@H](O)[C@@H](O)[C@@H]1O` [Arbutin], the IC50 cell viability by setting is: (ICRF193 0 nM) over 45.8 µM; (ICRF193 200 nM) over 45.8 µM.

On to `Nc1ccncc1` [4-Aminopyridine], for which the IC50 cell viability is over 45.8 µM (ICRF193 0 nM) and over 45.8 µM (ICRF193 200 nM).

Turning to `O=C(O)COC(=O)Cc1ccccc1Nc1c(Cl)cccc1Cl` [Aceclofenac], the IC50 cell viability is over 45.8 µM (ICRF193 0 nM) and over 45.8 µM (ICRF193 200 nM).

Regarding `O=S(=O)(O)Oc1ccc(C(c2ccc(OS(=O)(=O)O)cc2)c2ccccn2)cc1` [Picosulfate sodium], the IC50 cell viability (ICRF193 0 nM) was over 45.8 µM and the IC50 cell viability (ICRF193 200 nM) is over 45.8 µM.

Regarding `CCCCCCc1ccc(O)cc1O` [4-Hexylresorcinol], the IC50 cell viability (ICRF193 0 nM) was over 45.8 µM and the IC50 cell viability (ICRF193 200 nM) was over 45.8 µM.

`Cc1nnc2n1-c1sc(Br)cc1C(c1ccccc1Cl)=NC2` [Brotizolam]: the IC50 cell viability (ICRF193 0 nM) is over 45.8 µM and the IC50 cell viability (ICRF193 200 nM) is over 45.8 µM.

As to `O=C1c2cccc(O)c2C(=O)c2c(O)cccc21` [Danthron], the IC50 cell viability is over 45.8 µM (ICRF193 0 nM) and over 45.8 µM (ICRF193 200 nM).

`CN(C(=O)CO)c1c(I)c(C(=O)NCC(O)CO)c(I)c(C(=O)NCC(O)CO)c1I` (centres undefined) [Iomeprol] came in with an IC50 cell viability (ICRF193 0 nM) of over 45.8 µM and an IC50 cell viability (ICRF193 200 nM) of over 45.8 µM.

Turning to `NC12CC3CC(CC(C3)C1)C2` [Amantadine hydrochloride], the IC50 cell viability by setting is: (ICRF193 0 nM) over 45.8 µM; (ICRF193 200 nM) over 45.8 µM.

In turn, `Nc1nc(=O)[nH]cc1F` [Flucytosine] displayed an IC50 cell viability (ICRF193 0 nM) of over 45.8 µM and an IC50 cell viability (ICRF193 200 nM) of over 45.8 µM.

For `C[C@@H]1CC2=CC(=O)CC[C@@H]2[C@H]2CC[C@@]3(C)[C@@H](CC[C@]3(C)O)[C@@H]21` [Mibolerone], the IC50 cell viability was over 45.8 µM (ICRF193 0 nM) and over 45.8 µM (ICRF193 200 nM).

As for `CCOC(=O)c1cnc2cc(OCC(C)C)c(OCC(C)C)cc2c1O` [Buquinolate], the IC50 cell viability was over 45.8 µM (ICRF193 0 nM) and over 45.8 µM (ICRF193 200 nM).
